The target of assay [1] is T1, Serotonin N-acetyltransferase (Homo sapiens, UniProt Q16613). Kind of assay: Inhibition of AANAT (unknown origin).
In assay [2] the target is T1, Serotonin N-acetyltransferase. Kind of assay: Inhibition of human AANAT.

T1 sequence (Q16613 whole entry): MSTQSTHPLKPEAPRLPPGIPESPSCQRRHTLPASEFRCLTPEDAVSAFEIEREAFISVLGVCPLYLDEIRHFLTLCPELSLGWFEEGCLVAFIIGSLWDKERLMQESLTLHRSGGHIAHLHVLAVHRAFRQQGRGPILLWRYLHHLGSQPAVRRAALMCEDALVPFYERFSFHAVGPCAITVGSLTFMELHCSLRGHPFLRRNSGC

As for `O=C(CBr)NCCc1c[nH]c2ccccc12`, in assay [1], 0.5 µM corresponded to half-maximal inhibition (IC50).

For the molecule `O=C(CCl)NCCc1c[nH]c2ccccc12`, the IC50 in assay [1] was found to be 5.2 µM. In turn, `C=CC(=O)NCCc1csc2ccc(OC)cc12` came in with an IC50 in assay [2] of 25 µM.

The values above are taken from ChEMBL document CHEMBL6083231, “AANAT kinetics of CoASH-targeted electrophiles of tryptamine and related analogs” (Bioorg Med Chem Lett, 2024).
